Assay results as given in US20240253023A1, “PERFLUORINATED AMIDE SALTS AND THEIR USES AS IONIC CONDUCTING MATERIALS” (priority 1996, published 2024).
Counter-ions that a name gives are not always drawn. One block for each compound: values may come before it.

Tests used:
[1] = oxidation potential towards a lithium anode; assay type: physicochemical
[2] = solubility in organic solvents and polymers; settings: for solubility in organic solvents: organic solvents (tetrahydrofurane, acetonitrile, dimethylformamide, ethyl acetate, glymes ...), mostly also in aprotic solvating or polar polymers
[3] = ionic conductivity of salts and polyelectrolytes in polymer, liquid, gel or molten media; assay type: physicochemical
[4] = acid form; cited from earlier work
[5] = cationic transport number of electrolytes; assay type: physicochemical; settings: in poly (ethylene oxide)
[6] = reversible redox potential in poly (ethylene oxide) on a platinum electrode, towards a lithium electrode; assay type: physicochemical; settings: platinum electrode 125 μm
Protocol: These salts have a reversible redox couple. In poly (ethylene oxide) a reversible potential≈3.4 V towards a lithium electrode was determined on a platinum electrode having a diameter of 125 μm.
This salt has two reversible redox couples. In poly (ethylene oxide), on a platinum electrode of a diameter of 125 μm, it was shown that there is a first redox couple having a potential≈3.2 V and a second redox couple having a potential≈3.8 V, these potentials being measured towards a lithium electrode.

[7] = in poly (ethylene oxide), O/Li 12/1, 60° C.

Compound: O=S(=O)([N-]S(=O)(=O)C(F)(F)F)c1nnc(C(F)(F)F)s1.[Li+] [Example 35, lithium salt of trifluoromethanesulfonyl(5-trifluoromethyl-1,3,4-thiadiazole-5-sulfonyl)imide]
oxidation potential ([1]; 0.5 M in acetonitrile): higher than 4.5 V
solubility in organic solvents [2]: soluble in most usual organic solvents

Compound: CN(C)c1cccc2c(S(=O)(=O)[N-]S(=O)(=O)C(F)(F)F)cccc12.[K+] [Example 53, potassium trifluoromethane-sulfonyl(5-dimethylamino-1-naphthalenesulfonyl)imide]
solubility in organic solvents [2]: soluble in most polar organic solvents

Compound: potassium salt of N,N′,N″,N′″-perfluorobutanesulfonyl-Nickel(II) phtalocyaninetetrasulfonamide [Example 57]
solubility in organic solvents [2]: soluble in most usual organic solvents

Compound: CN(C)S(=O)(=O)[N-]S(=O)(=O)C(F)(F)F.[K+] [potassium salt of trifluoromethanesulfonyl-(dimethylaminosulfonyl)irnide]
conductivity ([3]; in poly (ethylene oxide), O/K=12/1, 60° C.): 5.10^−4 S·cm^−1

Compound: O=S(=O)(NS(=O)(=O)C(F)(F)F)C(F)(F)F [H[CF3SO2—N—SO2CF3]]
pKa [4]: 1.95

Compound: CCCN(CCC)S(=O)(=O)[N-]S(=O)(=O)C(F)(F)F.[Li+] [lithium salt of trifluoromethanesulfonyl(dipropylaminosulfonyl)-imide]
conductivity ([3]; in poly (ethylene oxide), O/Li=12/1, temperature not stated): 1.4×10^−4 S·cm^−1
cationic transport number ([5]; O/Li=12/1): 0.42

cationic transport number ([5]; O/Li=16/1): about 0.55
Compound: CCCCCCCCCCCCS(=O)(=O)[N-]S(=O)(=O)C(F)(F)F.[Li+] [lithium salt of trifluoromethanesulfonyl(dodecylsulfonyl)imide]

Compound: di-lithium salt of 9-10-(propylsulfonamide-N-trifluoromethanesulfonyl)phenazine [Example 61]
potential of first redox couple [6]: ≈ 3.2 V
potential of second redox couple [6]: ≈ 3.8 V

solubility in dichloromethane ([2]; dichloromethane): good solubility in dichloromethane
Compound: CCN(CC)S(=O)(=O)[N-]S(=O)(=O)C(F)(F)F.CCN(CC)S(=O)(=O)[N-]S(=O)(=O)C(F)(F)F.CCN(CC)S(=O)(=O)[N-]S(=O)(=O)C(F)(F)F.[Yb+3] [Yb(DETFSI)3, ytterbium salt of diethylaminosulfonyl(trifluoromethanesulfonyl)imide]

Compound: O=S(=O)(CC(F)(F)F)[N-]S(=O)(=O)C(F)(F)F.[Li+] [Example 9, lithium salt of trifluoromethanesulfonyl(2,2,2-trifluoroethane-sulfonyl) imide]
conductivity [3, 7]: 2.3×10^−4 S·cm^−1

Compound: N-trifluoromethanesulfonyl-2-aminoacridine tetraethylammonium [Example 54]
solubility in organic solvents [2]: soluble in most usual organic solvents

Compound: CN(C)S(=O)(=O)[N-]S(=O)(=O)C(F)(F)F.CN(C)S(=O)(=O)[N-]S(=O)(=O)C(F)(F)F.CN(C)S(=O)(=O)[N-]S(=O)(=O)C(F)(F)F.[La+3] [Example 30, lanthanum salt of trifluoromethanesulfonyl(dimethylaminosulfonyl)-imide]
solubility in organic solvents [2]: highly soluble in the usual organic solvents

Compound: O=S(=O)(NS(=O)(=O)C(F)(F)F)OC(C(F)(F)F)C(F)(F)F [Example 37 molten salt, trifluoromethanesulfonyl(1,1,1,3,3,3-hexafluoro-2-propanoxysulfonyl)imide 1-ethyl-3-methyl-1H-imidazolium]
conductivity ([3]; neat molten salt, temperature not stated): 3.91×10^−3 S·cm^−1

solubility in low polar solvents ([2]; dichloromethane or methylene chloride, polymer matrices with low polarity such as methyl polymethacrylate): very soluble in low polar solvents
Compound: CCCCC(CC)CN(CC(CC)CCCC)S(=O)(=O)[N-]S(=O)(=O)C(F)(F)F.CCN1C(=CC=CC=CC=Cc2sc3ccccc3[n+]2CC)Sc2ccccc21 [3,3′-diethylthiatricarbocyanine of di-2-ethylhexylaminosulfonyl(trifluoro-methanesulfonyl)imide]

Compound: O=S(=O)(CCc1c2ccccc2cc2ccccc12)[N-]S(=O)(=O)C(F)(F)F.[K+] [Example 56, potassium salt of trifluoromethanesulfonyl(anthracenyl-9-ethanesulfonyl)imide]
solubility in organic solvents [2]: soluble in most usual organic solvents

Compound: O=S(=O)(Nc1nnc(C(F)(F)F)s1)C(F)(F)F [Example 34, trifluoromethanesulfonyl(5-trifluoromethyl-1,3,4 thiadiazole)amide]
oxidation potential ([1]; 1 M in ethylene carbonate and dimethylcarbonate (2:1)): higher than 4 V
solubility in organic solvents [2]: soluble in most usual organic solvents

Compound: CN(C)S(=O)(=O)[N-]S(=O)(=O)C(F)(F)F.[Li+] [lithium salt of trifluoromethanesulfonyl-(dimethylaminosulfonyl)imide]
conductivity [3, 7]: 1.2×10^−4 S·cm^−1
